Structures can show the parent of a compound that is named as a salt.
How the values were obtained:
[1] = molecular target: T1, angiotensin-converting enzyme (ACE) (Oryctolagus cuniculus, UniProt P12822); test: Inhibitory activity against angiotensin-converting enzyme (ACE); format: biochemical, rabbit; settings: for ACE inhibitory activity higher than Test Compound No. 4 (fold): compared with Test Compound No. 4; for IC50: enzyme from rabbit lung acetone powder, substrate hippurylhistidyl-leucine, 37° C.
T1 construct: enzyme solution prepared from rabbit lung acetone powder; tissue Sigma Chemical Co., Ltd., U.S.A; host or cells: rabbit lung (acetone powder)
T1 sequence (P12822 34-1310): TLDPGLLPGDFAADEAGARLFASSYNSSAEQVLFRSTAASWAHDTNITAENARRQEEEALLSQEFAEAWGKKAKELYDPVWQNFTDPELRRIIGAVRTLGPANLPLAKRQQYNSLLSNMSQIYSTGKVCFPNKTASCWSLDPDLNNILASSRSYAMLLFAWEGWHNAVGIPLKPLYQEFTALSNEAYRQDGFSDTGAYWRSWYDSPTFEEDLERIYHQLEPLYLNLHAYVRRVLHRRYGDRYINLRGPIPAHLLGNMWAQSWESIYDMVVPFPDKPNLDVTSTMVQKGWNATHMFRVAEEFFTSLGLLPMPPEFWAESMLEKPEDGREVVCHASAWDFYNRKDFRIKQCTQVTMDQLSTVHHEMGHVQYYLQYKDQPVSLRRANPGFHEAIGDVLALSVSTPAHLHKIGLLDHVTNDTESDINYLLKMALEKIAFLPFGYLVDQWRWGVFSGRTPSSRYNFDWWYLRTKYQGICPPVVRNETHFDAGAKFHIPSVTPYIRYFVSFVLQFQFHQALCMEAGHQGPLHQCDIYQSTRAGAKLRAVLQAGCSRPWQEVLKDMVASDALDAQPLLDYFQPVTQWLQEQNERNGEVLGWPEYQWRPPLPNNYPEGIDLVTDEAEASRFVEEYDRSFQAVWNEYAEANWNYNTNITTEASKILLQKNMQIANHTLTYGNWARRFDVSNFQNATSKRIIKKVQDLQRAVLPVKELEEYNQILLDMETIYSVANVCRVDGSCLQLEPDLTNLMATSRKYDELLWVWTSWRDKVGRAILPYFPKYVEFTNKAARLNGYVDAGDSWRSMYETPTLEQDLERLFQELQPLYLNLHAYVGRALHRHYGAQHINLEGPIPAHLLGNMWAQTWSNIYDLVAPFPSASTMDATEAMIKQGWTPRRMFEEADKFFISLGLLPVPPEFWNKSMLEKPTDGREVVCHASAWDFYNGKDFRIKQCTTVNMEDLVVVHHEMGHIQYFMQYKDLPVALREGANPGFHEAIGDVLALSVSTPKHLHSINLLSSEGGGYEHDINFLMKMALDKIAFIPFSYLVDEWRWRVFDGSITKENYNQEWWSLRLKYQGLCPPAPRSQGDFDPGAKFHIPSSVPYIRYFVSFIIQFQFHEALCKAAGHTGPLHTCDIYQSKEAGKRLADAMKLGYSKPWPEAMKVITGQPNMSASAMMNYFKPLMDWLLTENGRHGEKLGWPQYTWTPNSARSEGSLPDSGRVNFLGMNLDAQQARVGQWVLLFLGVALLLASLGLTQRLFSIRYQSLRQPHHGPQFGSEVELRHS
Protocol: Inhibitory activity against angiotensin-converting enzyme (ACE)
A 100 μl quantity of an enzyme solution prepared from rabbit lung acetone powder (product of Sigma Chemical Co., Ltd., U.S.A.) was mixed with 100 μl of a sample solution. The mixture was gently shaken at 37° C. for 10 minutes. To the reaction mixture was added 100 μl of a solution containing 6.99 mM of hippurylhistidyl-leucine (product of Peptide Institute, Inc., Japan) as a substrate. The mixture was reacted at 37° C. for 45 minutes while being shaken. The reaction was terminated by addition of 200 μl of a 1N sulfuric acid aqueous solution to the reaction mixture. Sodium chloride (saturation amount) and diethyl ether (2 ml) were added to the reaction mixture to extract the hippuric acid formed by the reaction. The resulting mixture was vigorously shaken for 15 minutes and centrifuged at 2000 rpm for 5 minutes. A 1.5 ml quantity of the ether layer was separated. After the solvent was distilled off, the residue was redissolved in 1.5 ml of distilled water and the absorbance at 228 nm was measured. A control was prepared by repeating the same procedure as above except that 100 μl of distilled water was used in place of the sample solution.
The inhibitory activity was calculated by deducting the absorbance value of the residue formed by addition of the sample solution from that of the control, and the resulting value was divided by the absorbance value of the control and multiplied by 100, thereby giving a percent inhibition. The inhibitory activity was expressed as IC50, i.e., the concentration of the sample solution in the reaction mixture in which concentration 50% inhibition is achieved.
The test compounds used in the experiment are shown below.

[2] = system: angiotensin-converting enzyme (ACE); test: ACE inhibitory effect in normotensive rats (inhibition of pressor response to angiotensin I); format: in vivo; settings: 1 mg/kg directly to the stomach, male Wistar rats, urethane anesthesia, AI/AII ratio
Protocol: ACE Inhibitory effect in normotensive rats
Male Wistar rats weighing 200 to 400 g were anesthetized by the intraperitoneal injection of urethane (1.25 g/kg) and held in the supine position. The degree of inhibition of pressor response to angiotensin (A) I was determined using these rats. The blood pressure was measured with a femoral artery cannula connected to a transducer (product of Nihon Kohden Kabushiki Kaisha, Japan, Model MPU-0.5-290-0-III) and recorded in terms of a mean blood pressure value through a carrier amplifier (product of Nihon Kohden Kabushiki Kaisha, Japan, Model RP-5) on a multipurpose polygraph (product of Nihon Kohden Kabushiki Kaisha, Japan, Model RM-85). The rats were set in an experimental device and left therein for 1 hour to stabilize the hemodynamics. Then experiments were commenced. Since the magnitude of the pressor response to AI varies with time, the ratio of the responses to AI and AII (AI/AII ratio) was used to determine the magnitude of the pressor response to AI which ratio remained more constant. Through the cannulated femoral vein, AI (300 ng/kg) was administered first and AII (300 ng/kg) was given in 5 minutes to measure an AI/AII ratio. At 30 minutes after the first administration of AI, AI (300 ng/kg) was similarly administered and AII (300 ng/kg) was given in 5 minutes, followed by measuring an AI/AII ratio. This procedure was repeated until a constant value of AI/AII ratio was obtained. (The mean value of AI/AII ratios each resulting from the repeated procedure is represented as "C" in an equation to be shown later). At 10 minutes after the final administration of AII, an aqueous solution containing 1 mg/kg of each test compound was given directly to the stomach through a vinyl tube. At 10 minutes after administration of the test compound, AI (300 ng/kg) was given and at 5 minutes later, AII (300 ng/kg) was administered, followed by measurement of the AI/AII ratio (which was represented as "E" in the following equation). An ACE percent inhibition was calculated according to the equation indicated below. [formula]
Subsequently at each time of 60, 120 and 240 minutes after the administration of the test compound, AI (300 ng/kg) was given in the same manner as above and AII (300 ng/kg) was administered in 5 minutes, whereupon an ACE percent inhibition was calculated in the same way.
The results are shown below in Table 26 in which the test compounds listed are those prepared in the Examples indicated therein.

Compound	ACE inhibitory activity higher than Test Compound No. 4 (fold) [1]	IC50 [1] [nM]	ACE Percent Inhibition, mean ± SD ([2]; 15 min. after administration) [%]	ACE Percent Inhibition, mean ± SD ([2]; 60 min. after administration) [%]	ACE Percent Inhibition, mean ± SD ([2]; 120 min. after administration) [%]	ACE Percent Inhibition, mean ± SD ([2]; 240 min. after administration) [%]
CCCCCCSC[C@H](NC(C)C(=O)N1CCC[C@H]1C(=O)O)C(=O)O (single isomer, unassigned) [Test Compound 1]	about 24 times	0.521				
CCCCCCSC[C@H](NC(C)C(=O)N1CCC[C@H]1C(=O)O)C(=O)O (single isomer, unassigned) [Test Compound 2]	about 9.4 times	1.35				
CCCCCSC[C@H](NC(C)C(=O)N1CCC[C@H]1C(=O)O)C(=O)O (stereo partly drawn) [Test Compound 3, N--[(R)--1-carboxy-2-pentylthioethyl]-alanyl-(S)--proline (β-isomer)]	about 122 times	0.104				
CSCC[C@H](NC(C)C(=O)N1CCC[C@H]1C(=O)O)C(=O)O (stereo partly drawn) [Test Compound 4, N--[(S)--1-carboxy-3-methylthiopropyl]-(R,S)--alanyl-(S)--proline, reference compound]		12.7				
COC(=O)[C@H](CCSC)NC(C)C(=O)N1CCC[C@H]1C(=O)O (stereo partly drawn) [Test Compound 5, N--[(S)--1-methoxycarbonyl-3-methylthiopropyl]-(R,S)--alanyl-(S)--proline hydrochloride, reference compound]		5240	1 ± 5	6 ± 4	7 ± 6	9 ± 1

Source: patent publication US4642355A, “Proline derivatives” (Otsuka Pharmaceutical Factory, Inc., priority 1984, dated 1987)
